The target of assay [1] is Cholinesterase (Equus caballus, UniProt P81908). The assay is described as follows: Inhibition of equine BChE using BTCI as substrate preincubated for 30 mins followed by substrate addition measured after 30 mins by Ellman's method. Background: Ellman's reagent forms a yellow product with free thiols.
For assay [2], the target named is T1, Acetylcholinesterase (Homo sapiens, UniProt P22303). Nature of the assay: Inhibition of human AChE using ATCI as substrate preincubated for 30 mins followed by substrate addition measured after 30 mins by Ellman's method relative to control. To be noted: time 60.0 min. On the set-up: concentration or dose not given beside the values.
For assay [3], the target named is T1, Acetylcholinesterase. The assay is described as follows: Inhibition of human AChE using ATCI as substrate preincubated for 30 mins followed by substrate addition measured after 30 mins by Ellman's method.
Assay [4] is described as follows: Antioxidant activity assessed as inhibition of DPPH radical scavenging activity incubated for 30 mins by absorbance based analysis. Format: functional. On the technique in general: The DPPH test is a chemical assay of radical scavenging.
Assay [5] in a line: Antioxidant activity assessed as DPPH radical scavenging activity at 20 to 200 uM incubated for 30 mins by absorbance based analysis relative to control. Format: functional. To be noted: dose 20-200 µM.
Assay [6] addresses Cholinesterase (Equus caballus) (UniProt P81908). The assay is described as follows: Inhibition of equine BChE using BTCI as substrate preincubated for 30 mins followed by substrate addition measured after 30 mins by Ellman's method relative to control.

Usually IC50 stands for the midpoint of a concentration-inhibition curve. A word on the inhibition: it is the percentage by which the read-out fell short of the control.

T1 sequence (P22303 whole entry): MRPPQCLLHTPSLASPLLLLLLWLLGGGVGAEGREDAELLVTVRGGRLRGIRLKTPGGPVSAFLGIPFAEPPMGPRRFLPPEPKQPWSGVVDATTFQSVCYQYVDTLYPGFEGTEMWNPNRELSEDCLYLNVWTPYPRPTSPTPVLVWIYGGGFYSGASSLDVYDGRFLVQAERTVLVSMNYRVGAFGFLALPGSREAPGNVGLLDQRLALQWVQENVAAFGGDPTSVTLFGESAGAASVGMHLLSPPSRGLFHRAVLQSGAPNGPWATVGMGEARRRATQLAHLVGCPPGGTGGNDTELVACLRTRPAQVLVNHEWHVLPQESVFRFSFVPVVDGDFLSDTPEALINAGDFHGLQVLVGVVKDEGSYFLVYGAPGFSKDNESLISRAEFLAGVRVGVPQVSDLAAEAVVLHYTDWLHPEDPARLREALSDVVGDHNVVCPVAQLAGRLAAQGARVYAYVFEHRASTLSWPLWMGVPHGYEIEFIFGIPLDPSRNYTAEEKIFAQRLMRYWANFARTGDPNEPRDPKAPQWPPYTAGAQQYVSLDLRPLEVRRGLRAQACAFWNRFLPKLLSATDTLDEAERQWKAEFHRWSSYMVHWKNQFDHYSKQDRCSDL
Chain of Cholinesterase (P81908 whole entry): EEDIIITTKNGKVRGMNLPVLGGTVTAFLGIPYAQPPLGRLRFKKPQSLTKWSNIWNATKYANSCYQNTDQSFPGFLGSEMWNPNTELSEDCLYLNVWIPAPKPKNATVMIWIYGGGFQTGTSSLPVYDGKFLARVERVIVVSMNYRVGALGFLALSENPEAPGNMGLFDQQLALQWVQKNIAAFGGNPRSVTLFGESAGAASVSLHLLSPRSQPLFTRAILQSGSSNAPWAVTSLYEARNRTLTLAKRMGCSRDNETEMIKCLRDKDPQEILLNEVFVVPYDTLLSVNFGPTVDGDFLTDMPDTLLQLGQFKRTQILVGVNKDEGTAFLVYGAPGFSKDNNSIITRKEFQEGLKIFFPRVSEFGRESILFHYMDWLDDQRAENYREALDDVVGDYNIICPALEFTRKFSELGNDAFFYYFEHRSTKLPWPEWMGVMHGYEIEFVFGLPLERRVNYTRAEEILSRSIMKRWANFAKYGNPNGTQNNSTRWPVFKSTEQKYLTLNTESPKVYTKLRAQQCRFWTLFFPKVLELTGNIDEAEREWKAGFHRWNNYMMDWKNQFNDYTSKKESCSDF
Chain of Cholinesterase (Equus caballus) (P81908 whole entry): as above

As for `N/C(=N\O)c1cccc(NC(=O)Nc2ccccc2)c1`, the IC50 in assay [1] was 17.5 µM. The compound also gave an inhibition in assay [2] of 47.9%.

On to `Cc1ccccc1NC(=O)Nc1cccc(/C(N)=N/O)c1`, for which the values for the IC50 in assay [1] and in assay [3] were 15.4 µM and 17.4 µM, respectively.

With `N/C(=N\O)c1cccc(NC(=O)NCCc2c[nH]c3ccccc23)c1`, the IC50 in assay [1] worked out at 3.91 µM; in assay [3] it was 1.54 µM.

`N/C(=N\O)c1cccc(NC(=O)Nc2ccccc2Cl)c1` returned an inhibition in assay [2] of 49.2%.

Take `N/C(=N\O)c1cccc(NC(=O)Nc2ccc3[nH]ccc3c2)c1`: the IC50 in assay [1] came out at 15.9 µM; in assay [3], 6.24 µM; in assay [4], 22.9 µM. The Activity in assay [5] is 34.2%.

In assay [1], `COc1ccccc1NC(=O)Nc1cccc(/C(N)=N/O)c1` came in with an IC50 of 15.2 µM. In assay [2], the inhibition amounted to 49%.

For `COc1cccc(NC(=O)Nc2ccc(/C(N)=N/O)cc2)c1`, the IC50 in assay [1] was 18.2 µM; in assay [3], 9.15 µM.

With `Cc1ccccc1NC(=O)Nc1ccc(/C(N)=N/O)cc1`, the IC50 in assay [1] was 16.9 µM; in assay [3], 8.57 µM.

Consider `NC(=NO)c1cccc(NC(=O)Nc2cccc([N+](=O)[O-])c2)c1`, for which the figures for the IC50 in assay [1] and in assay [3] were 16.3 µM and 12.1 µM, respectively.

As to `N/C(=N\O)c1ccc(NC(=O)Nc2ccc(Cl)cc2)cc1`, the results for the IC50 in assay [1] and in assay [3] were 14.6 µM and 7.65 µM, respectively.

In turn, `Cc1ccc(NC(=O)Nc2cccc(/C(N)=N/O)c2)cc1` had an IC50 in assay [1] of 17.9 µM. Also, in assay [2], the inhibition turned out to be 39.9%.

As for `NC(=NO)c1cccc(NC(=O)Nc2cccc(Cl)c2)c1`, the results for the IC50 in assay [1] and in assay [3] were 18.7 µM and 17.4 µM, respectively.

Regarding `N/C(=N\O)c1cccc(NC(=O)Nc2ccccc2F)c1`, the IC50 in assay [1] worked out at 11.3 µM; in assay [3], 18.6 µM.

For the compound `N/C(=N\O)c1cccc(NC(=O)Nc2ccccc2Br)c1`, the inhibition is 49.2% in assay [6] and 47.7% in assay [2].

Turning to `NC(=NO)c1cccc(NC(=O)Nc2ccc(F)cc2)c1`, the IC50 turned out to be 17.7 µM in assay [1] and 7.51 µM in assay [3].

Turning to `N/C(=N\O)c1ccc(NC(=O)Nc2cccc(F)c2)cc1`, the IC50 was 8.08 µM in assay [1] and 3.04 µM in assay [3].

As for `N/C(=N\O)c1ccc(NC(=O)Nc2ccc3[nH]ccc3c2)cc1`, the IC50 in assay [1] amounted to 12.7 µM; in assay [3], 7.47 µM.

Consider `NC(=NO)c1cccc(NC(=O)Nc2ccc3ncccc3c2)c1`, for which the IC50 was 15.4 µM in assay [1] and 5.68 µM in assay [3].

In the case of `NC(=NO)c1cccc(NC(=O)Nc2ccccc2C(F)(F)F)c1`, the results for the IC50 in assay [1] and in assay [3] were 17.1 µM and 18.3 µM, respectively.

On to `N/C(=N\O)c1cccc(NC(=O)Nc2ccc3ncccc3c2)c1`, for which the IC50 in assay [4] is 18.4 µM. Besides, the Activity in assay [5] was determined as 42.9%.

As for `N/C(=N\O)c1cccc(NC(=O)NCCc2c[nH]c3ccc(Cl)cc23)c1`, the results for the IC50 in assay [1] and in assay [3] were 3.1 µM and 1.16 µM, respectively.

Regarding `NC(=NO)c1cccc(NC(=O)Nc2cccc(O)c2)c1`, the IC50 in assay [1] amounted to 15.5 µM; in assay [3] it was 14.5 µM.

As for `NC(=NO)c1ccc(NC(=O)Nc2cccc(Br)c2)cc1`, the IC50 in assay [1] was 7.62 µM; in assay [3], 6.41 µM.

For the compound `O=c1c(O)c(-c2ccc(O)c(O)c2)oc2cc(O)cc(O)c12` [QUERCETIN], in assay [4], the IC50 came to 3.23 µM. Also, the Activity in assay [5] turned out to be 79.4%.

For `N/C(=N\O)c1ccc(NC(=O)Nc2ccc3ncccc3c2)cc1`, the IC50 in assay [1] was 13.2 µM; in assay [3], 6.94 µM.

Regarding `NC(=NO)c1cccc(NC(=O)Nc2ccc([N+](=O)[O-])cc2)c1`, the IC50 is 17.6 µM in assay [1] and 16.3 µM in assay [3].

In turn, `N/C(=N\O)c1cccc(NC(=O)Nc2ccc(C(F)(F)F)cc2)c1` yielded an IC50 in assay [3] of 12.2 µM. Besides, in assay [6], the inhibition amounted to 47%.

Turning to `N/C(=N\O)c1cccc(NC(=O)Nc2ccc(Cl)cc2)c1`, the IC50 in assay [1] stood at 16.5 µM; in assay [3] it was 14.1 µM.

Regarding `COc1ccc(NC(=O)Nc2cccc(/C(N)=N/O)c2)cc1`, the IC50 worked out at 17.9 µM in assay [1] and 16.3 µM in assay [3].

Regarding `N/C(=N\O)c1cccc(NC(=O)Nc2cccc(Br)c2)c1`, the IC50 in assay [1] is 8.63 µM; in assay [3], 14.5 µM.

Regarding `Cc1cccc(NC(=O)Nc2cccc(/C(N)=N/O)c2)c1`, half-maximal inhibition in assay [1] (IC50) was put at 10.6 µM. Further, the inhibition in assay [2] was found to be 42.5%.

`COc1cccc(NC(=O)Nc2cccc(/C(N)=N/O)c2)c1`: the figures for the IC50 in assay [1] and in assay [3] were 12.8 µM and 12.9 µM, respectively.

`NC(=NO)c1cccc(NC(=O)Nc2ccccc2Cl)c1`: half-maximal inhibition in assay [1] (IC50) was put at 15.4 µM.

`NC(=NO)c1cccc(NC(=O)Nc2ccc(Br)cc2)c1`: the values for the IC50 in assay [1] and in assay [3] were 14.6 µM and 16.8 µM, respectively.

Take `N/C(=N\O)c1cccc(NC(=O)Nc2ccc(O)cc2)c1`: the IC50 is 14.4 µM in assay [1] and 16.3 µM in assay [3].

For `N/C(=N\O)c1cccc(NC(=O)Nc2cccc(C(F)(F)F)c2)c1`, the IC50 in assay [1] is 10.5 µM; in assay [3] it was 17 µM.

The record behind these values is ChEMBL document CHEMBL6092212, “Discovery of novel substituted (Z)-N'-hydroxy-3-(3-phenylureido)benzimidamide derivatives as multifunctional molecules targeting pathological hallmarks of Alzheimer's disease” (Eur J Med Chem, 2024).
